Laboratory results published in patent publication US10301317B2, “Inhibitors of ERK and methods of use” (Kura Oncology, Inc., priority 2013, dated 2019).

How the values were obtained:
[1] = test system: phospho-p90 RSK (RSK1 Thr359/Ser363) in A375 (Braf V600E) cells; test: Phospho-p90 RSK ELISA using A375 (Braf V600E) cells; format: cell-based; settings: Homo sapiens, A-375, 2 hours compound treatment, read-out: Cellular Phospho-p90RSK IC50
A375 cells = test: Tumor cell line proliferation assay (CellTiter Glo), A375; format: cell-based; settings: Homo sapiens, A-375, 96 h, read-out: A375 (V599E) Cell Proliferation IC50

Compound: Cc1cc(-c2n[nH]c3cc4c(cc23)CN(C2CCC2)C(=O)N4)ccn1 [Example 243]
- IC50 [1]: ≤ 250 nM
- IC50 (A375 cells): ≤ 250 nM

Compound: Cc1cc(-c2n[nH]c3cc4c(cc23)CN([C@@H]2CCCN(Cc3ccsc3)C2)C(=O)N4)ccn1 [Example 252]
- IC50 [1]: ≤ 250 nM
- IC50 (A375 cells): ≤ 250 nM

Compound: COc1cc(-c2n[nH]c3cc4c(cc23)CN([C@@H]2CCCN(Cc3ccccc3)C2)C(=O)N4)ccn1 [Example 270]
- IC50 [1]: ≤ 250 nM
- IC50 (A375 cells): ≤ 250 nM

Compound: Cc1cc(-c2n[nH]c3cc4c(cc23)CN([C@@H]2CCN(CCc3ccccc3)C2)C(=O)N4)ccn1 [Example 153]
- IC50 [1]: ≤ 250 nM
- IC50 (A375 cells): ≤ 250 nM

Compound: CCN1C[C@@H](N2Cc3cc4c(-c5ccnc(C)c5)n[nH]c4cc3NC2=O)[C@H](c2ccccc2)C1 (racemic) [Example 278]
- IC50 [1]: ≤ 250 nM
- IC50 (A375 cells): ≤ 250 nM

Compound: Cc1cc(-c2n[nH]c3cc4c(cc23)CN([C@@H]2CCCN(Cc3cc(F)ccc3F)C2)C(=O)N4)ccn1 [Example 187]
- IC50 [1]: ≤ 250 nM
- IC50 (A375 cells): ≤ 250 nM

Compound: [2H]C([2H])(c1ccccc1)N1CCC[C@@H](N2Cc3cc4c(-c5ccnc(C)c5)n[nH]c4cc3NC2=O)C1 [Example 148]
- IC50 [1]: ≤ 250 nM
- IC50 (A375 cells): ≤ 250 nM

Compound: COc1ncc(-c2n[nH]c3cc4c(cc23)CN([C@@H]2CCCN(Cc3ccc(F)cc3F)C2)C(=O)N4)cn1 [Example 280]
- IC50 [1]: ≤ 250 nM
- IC50 (A375 cells): ≤ 250 nM

Compound: Cc1cc(-c2n[nH]c3cc4c(cc23)CN(CC2CCCC2)C(=O)N4)ccn1 [Example 212]
- IC50 [1]: ≤ 250 nM
- IC50 (A375 cells): ≤ 250 nM

Compound: Cc1cc(-c2n[nH]c3cc4c(cc23)CN(Cc2ccccc2)C(=O)N4)cc(C)n1 [Example 229]
- IC50 [1]: ≤ 250 nM
- IC50 (A375 cells): 250 to 1000 nM

Compound: Cc1cc(-c2n[nH]c3cc4c(cc23)CN([C@@H]2CN(CC(F)(F)F)C[C@H]2C(F)(F)F)C(=O)N4)ccn1 [Example 331]
- IC50 [1]: 250 to 1000 nM
- IC50 (A375 cells): 250 to 1000 nM

Compound: Cc1cc(-c2n[nH]c3cc4c(cc23)CN([C@@H]2CN(CC(F)(F)F)C[C@H]2c2ccccc2F)C(=O)N4)ccn1 (racemic) [Example 311]
- IC50 [1]: ≤ 250 nM
- IC50 (A375 cells): 250 to 1000 nM

Compound: Cc1cc(-c2n[nH]c3cc4c(cc23)CN(C2CCOC(C)(C)C2)C(=O)N4)ccn1 (stereo not drawn) [Example 219]
- IC50 [1]: 250 to 1000 nM

Compound: COc1ccc(-c2n[nH]c3cc4c(cc23)CN(Cc2cccc(Cl)c2)C(=O)N4)cn1 [Example 75]
- IC50 [1]: ≤ 250 nM

Compound: O=C1Nc2cc3[nH]nc(-c4ccnnc4)c3cc2CN1[C@@H]1CN(CC(F)(F)F)C[C@H]1c1ccccc1 [Example 340]
- IC50 [1]: ≤ 250 nM

Compound: Cc1cc(-c2n[nH]c3cc4c(cc23)CN(C(C)C2CCOCC2)C(=O)N4)ccn1 (stereo not drawn) [Example 262]
- IC50 [1]: ≤ 250 nM

Compound: Cc1cc(-c2n[nH]c3cc4c(cc23)CN(CC2CCC2)C(=O)N4)ccn1 [Example 253]
- IC50 [1]: ≤ 250 nM

Compound: Cc1cc(-c2n[nH]c3cc4c(cc23)CN(C2CN(Cc3ccccc3)C2)C(=O)N4)ccn1 [Example 191]
- IC50 [1]: 250 to 1000 nM

Compound: CC(c1ccccc1)c1cc2cc3c(N4CCOCC4)n[nH]c3cc2[nH]c1=O (stereo not drawn) [Example 345]
- IC50 [1]: ≤ 250 nM

Compound: COc1cc(-c2n[nH]c3cc4c(cc23)CN(Cc2ccc(F)c(Cl)c2)C(=O)N4)ccn1 [Example 38]
- IC50 [1]: 250 to 1000 nM

Compound: Cc1cc(-c2n[nH]c3cc4c(cc23)CN(C2CCC(=O)N(Cc3ccccc3)C2)C(=O)N4)ccn1 (stereo not drawn) [Example 232]
- IC50 [1]: 250 to 1000 nM

Compound: Nc1ncc(-c2n[nH]c3cc4c(cc23)CN([C@@H]2CN(CC(F)(F)F)C[C@H]2c2ccccc2)C(=O)N4)cn1 [Example 351]
- IC50 [1]: 250 to 1000 nM

Compound: COc1ncc(-c2n[nH]c3cc4c(cc23)CN([C@H](C)c2cccc(C#N)c2)C(=O)N4)cn1 [Example 100]
- IC50 [1]: 250 to 1000 nM

Compound: Cc1ncc(-c2n[nH]c3cc4c(cc23)CN([C@@H]2CN(CC(F)(F)F)C[C@H]2c2ccccc2)C(=O)N4)cn1 [Example 349]
- IC50 [1]: ≤ 250 nM

Compound: Cc1cc(-c2n[nH]c3cc4c(cc23)CN(CCC2CC2)C(=O)N4)ccn1 [Example 283]
- IC50 [1]: > 1000 nM

Compound: COCCOCCN1Cc2cc3c(-c4ccnc(C)c4)n[nH]c3cc2NC1=O [Example 45]
- IC50 [1]: 250 to 1000 nM

Compound: Cc1cc(-c2n[nH]c3cc4c(cc23)CN([C@@H]2CCCN(Cc3cc(C(C)(C)C)no3)C2)C(=O)N4)ccn1 [Example 186]
- IC50 [1]: 250 to 1000 nM
